# Measured values taken from PubChem BioAssay AID1919004 (Molecular Pharmacology Branch, DTP, NCI, 2023).
# pIC50: −log10 of the molar value.
# Test system: 883617-216-R-J1-PDC complex spheroids, growth, % test/control
# Test: Anticancer human tumor 883617-216-R-J1-PDC patient-derived bladder carcinoma cell line growth inhibition [AhR]
# Details: for pIC50: curve of first compound; for viability, T/C: stronger effect = lower value
# From the text: Multicellular complex tumor spheroid response to aryl hydrocarbon receptor antagonists in combination with a variety of drugs and investigational agents in selected tumor cell lines
# The current study was undertaken to assess response to aryl hydrocarbon receptor antagonists in combination with standard-of-care drugs and investigational agents in solid tumor complex spheroid models. Complex spheroids include a stromal component modeled by human endothelial cells (HUVEC) and fibroblasts modeled by human mesenchymal stem cells (MSCs). The concentration ranges selected for each drug and investigational agent were based upon clinically achievable concentrations if the clinical Cmax of the agent was known.
# Compounds. The drugs and investigational agents: BAY 2416964 (NSC825713), GNF351 (NSC835774), CH-223191 (NSC835775), CPI-455 (NSC825282), aza-TdCyd (NSC777586), decitabine (NSC127716), belinostat (NSC758774), entinostat (NSC756642), pevonedistat (NSC761192), tazemetostat (NSC777109), talazoparib (NSC765396), olaparib (NSC753686), selinexor (NSC780203), nedisertib (M3814, NSC802822), bortezomib (NSC756655), venetoclax (NSC766270), doxorubicin (NSC123127), elimusertib (BAY189344, NSC800525), ceralasertib (AZD6738, NSC777638), TAK-243 (NSC785004), alisertib (NSC759677), etoposide (NSC141540), topotecan (NSC609699), eribulin (NSC707389), gemcitabine (NSC613327), carboplatin (NSC241240), cisplatin (NSC119875), and SN-38 (NSC673596) were obtained from the National Cancer Institute (NCI) Developmental Therapeutics Program Chemical Repository (32). The FDA-approved anticancer drug set is available from the Developmental Therapeutics Program at https://dtp.cancer.gov/organization/dscb/obtaining/available plates.htm. […] The stock solutions were prepared in dimethyl sulfoxide (DMSO, Sigma-Aldrich, St. Louis, MO, cat. D2650), except for the platinum compounds which were prepared in saline (Quality Biological, Gaithersburg, MD, cat. 114-055-101), at 800-fold the tested concentration and stored at -70 degrees C prior to their use. All drugs and investigational agents were tested over a range starting from a high concentration at or near the clinical Cmax and decreasing in half-log increments. If the clinical Cmax for an agent had not been determined, the highest concentration tested was 10 microM (Table 1).
# Cell Culture. All cells were maintained in an incubator at 37 degrees C and 5% CO2 with 95% humidity. The PDC lines were cultured according to standard operating procedures established by the NCI PDMR (https://pdmr.cancer.gov). Briefly, all PDCs were thawed and cultured in Matrigel-coated flasks prepared with a working solution of 1X Ham's F-12 nutrient mix, without supplementation (Invitrogen, Waltham, MA, cat. 11765054), 100 U/mL penicillin-streptomycin (Invitrogen, cat. 15140122), and 2.5% Matrigel (Corning Inc., Corning, NY, cat. 354248) for the first three passages. All PDCs were cultured in complete DMEM/F-12 media containing advanced DMEM/F-12 (Invitrogen, cat. 12634028), 4.9% defined fetal bovine serum, heat inactivated (HyClone Laboratories Inc., Logan, UT, cat. SH30070.03HI), 389 ng/mL hydrocortisone (Sigma-Aldrich, cat. H4001), 9.7 ng/mL human EGF recombinant protein (Invitrogen, cat. PHG0313), 23.4 microg/mL adenine (Sigma-Aldrich, cat. A2786), 97.3 U/mL penicillin-streptomycin (Invitrogen, cat. 15140122), 1.9 mM L-glutamine (Invitrogen, cat. 25030081), and 9.7 microM Y-27632 dihydrochloride (Tocris Bioscience, Bristol, United Kingdom, cat. 1254). The PDCs were cultured in complete DMEM/F12 media without 10 microM Y-27632 dihydrochloride for at least two passages prior to the screen. The established cell lines NCI-H1341 and […] were cultured in DMEM/F-12, HEPES (Invitrogen, cat. 11330032), 5% defined fetal bovine serum (HyClone Laboratories Inc., cat. SH30070.03), ITS premix universal culture supplement [insulin (5 microg/mL), transferrin (5 microg/mL), and selenious acid (5 ng/mL)] […]
# 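Note: exposure lasted 7 days after dosing on day 3 of spheroid growth.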
compound,measurement,setting,value
COc1ccc([C@@H](O)c2cc(-c3ncnc4cc(N5CCOCC5)ccc34)c(F)cc2Cl)nn1 + Cc1cncc(-c2nc(NCCc3c[nH]c4ccccc34)c3ncn(C(C)C)c3n2)c1,pIC50,second compound 0.1 µM,5.58
same,pIC50,second compound 0.316 µM,5.62
same,pIC50,second compound 1 µM,5.39
same,pIC50,second compound 3.16 µM,5.45
same,pIC50,second compound 10 µM,> 7.50
same,"viability, T/C","second compound 0.1 µM, first compound 0.0316 µM",89.8%
same,"viability, T/C","second compound 0.1 µM, first compound 0.1 µM",82.6%
same,"viability, T/C","second compound 0.1 µM, first compound 0.316 µM",78.2%
same,"viability, T/C","second compound 0.1 µM, first compound 1 µM",67.5%
same,"viability, T/C","second compound 0.1 µM, first compound 3.16 µM",45.5%
same,"viability, T/C","second compound 0.1 µM, first compound 10 µM",34.1%
same,"viability, T/C","second compound 0.316 µM, first compound 0.0316 µM",93.6%
same,"viability, T/C","second compound 0.316 µM, first compound 0.1 µM",103%
same,"viability, T/C","second compound 0.316 µM, first compound 0.316 µM",87.9%
same,"viability, T/C","second compound 0.316 µM, first compound 1 µM",67.1%
same,"viability, T/C","second compound 0.316 µM, first compound 3.16 µM",45.6%
same,"viability, T/C","second compound 0.316 µM, first compound 10 µM",35.3%
same,"viability, T/C","second compound 1 µM, first compound 0.0316 µM",100%
same,"viability, T/C","second compound 1 µM, first compound 0.1 µM",95.4%
same,"viability, T/C","second compound 1 µM, first compound 0.316 µM",85.9%
same,"viability, T/C","second compound 1 µM, first compound 1 µM",76.7%
same,"viability, T/C","second compound 1 µM, first compound 3.16 µM",50.7%
same,"viability, T/C","second compound 1 µM, first compound 10 µM",39.3%
same,"viability, T/C","second compound 3.16 µM, first compound 0.0316 µM",103%
same,"viability, T/C","second compound 3.16 µM, first compound 0.1 µM",102%
same,"viability, T/C","second compound 3.16 µM, first compound 0.316 µM",94.9%
same,"viability, T/C","second compound 3.16 µM, first compound 1 µM",79.9%
same,"viability, T/C","second compound 3.16 µM, first compound 3.16 µM",51.4%
same,"viability, T/C","second compound 3.16 µM, first compound 10 µM",33.3%
same,"viability, T/C","second compound 10 µM, first compound 0.0316 µM",39.6%
same,"viability, T/C","second compound 10 µM, first compound 0.1 µM",39.3%
same,"viability, T/C","second compound 10 µM, first compound 0.316 µM",38.9%
same,"viability, T/C","second compound 10 µM, first compound 1 µM",30.4%
same,"viability, T/C","second compound 10 µM, first compound 3.16 µM",19.2%
same,"viability, T/C","second compound 10 µM, first compound 10 µM",10.9%
Nc1ncn(C2CC(O)C(CO)S2)c(=O)n1 (stereo not given) + Cc1ccccc1N=Nc1ccc(NC(=O)c2ccnn2C)c(C)c1,pIC50,second compound 0.1 µM,< 6.52
same,pIC50,second compound 0.316 µM,< 6.52
same,pIC50,second compound 1 µM,< 6.52
same,pIC50,second compound 3.16 µM,< 6.52
same,pIC50,second compound 10 µM,< 6.52
same,"viability, T/C","second compound 0.1 µM, first compound 0.000949 µM",98.4%
same,"viability, T/C","second compound 0.1 µM, first compound 0.003 µM",90.2%
same,"viability, T/C","second compound 0.1 µM, first compound 0.00949 µM",88.8%
same,"viability, T/C","second compound 0.1 µM, first compound 0.03 µM",88.7%
same,"viability, T/C","second compound 0.1 µM, first compound 0.0949 µM",87.3%
same,"viability, T/C","second compound 0.1 µM, first compound 0.3 µM",75.8%
same,"viability, T/C","second compound 0.316 µM, first compound 0.000949 µM",83.9%
same,"viability, T/C","second compound 0.316 µM, first compound 0.003 µM",93.8%
same,"viability, T/C","second compound 0.316 µM, first compound 0.00949 µM",83.5%
same,"viability, T/C","second compound 0.316 µM, first compound 0.03 µM",81.2%
same,"viability, T/C","second compound 0.316 µM, first compound 0.0949 µM",84.6%
same,"viability, T/C","second compound 0.316 µM, first compound 0.3 µM",75.5%
same,"viability, T/C","second compound 1 µM, first compound 0.000949 µM",84.3%
same,"viability, T/C","second compound 1 µM, first compound 0.003 µM",84.2%
same,"viability, T/C","second compound 1 µM, first compound 0.00949 µM",99.2%
same,"viability, T/C","second compound 1 µM, first compound 0.03 µM",80.3%
same,"viability, T/C","second compound 1 µM, first compound 0.0949 µM",76.1%
same,"viability, T/C","second compound 1 µM, first compound 0.3 µM",80.7%
same,"viability, T/C","second compound 3.16 µM, first compound 0.000949 µM",81.7%
same,"viability, T/C","second compound 3.16 µM, first compound 0.003 µM",87.9%
same,"viability, T/C","second compound 3.16 µM, first compound 0.00949 µM",85%
same,"viability, T/C","second compound 3.16 µM, first compound 0.03 µM",73.3%
same,"viability, T/C","second compound 3.16 µM, first compound 0.0949 µM",86.4%
same,"viability, T/C","second compound 3.16 µM, first compound 0.3 µM",78.7%
same,"viability, T/C","second compound 10 µM, first compound 0.000949 µM",73.8%
same,"viability, T/C","second compound 10 µM, first compound 0.003 µM",68.5%
same,"viability, T/C","second compound 10 µM, first compound 0.00949 µM",76.3%
same,"viability, T/C","second compound 10 µM, first compound 0.03 µM",79.2%
same,"viability, T/C","second compound 10 µM, first compound 0.0949 µM",76.9%
same,"viability, T/C","second compound 10 µM, first compound 0.3 µM",83.4%
